The values below come from PubChem BioAssay (NCI).

Some test systems named below: MDA-MB-231 breast; SNB-19 CNS; IGROV1 ovarian; NCI-H23 lung; RPMI-8226 leukemia; MCF7 breast; SK-MEL-2 melanoma; SF-539 CNS; T-47D breast; LOX IMVI melanoma; K-562 leukemia; UO-31 renal.
Common to all, as to assay: NCI tumour cell line growth inhibition, 48 h

SMILES strings stand for the structures.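 Each compound was tested at five concentrations against cells in 96-well plates for 48 hours. TGI marks complete inhibition of growth.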 Where a SMILES comes first, the peptide text is derived from it. [ ]: non-standard residue; d: D form. pGlu = O=C1CC[CH](C(=O)O)N1; Thz = O=C(O)[CH]1CSCN1

As for `CCCCCCN(CCCCCC)CCC(=O)c1ccc2cc(Br)c3ccccc3c2c1`, the TGI in the test on MDA-MB-231 breast is 67.4 µM; with SNB-19 CNS, greater than 100 µM; with IGROV1 ovarian it was greater than 100 µM; in the test with NCI-H23 lung, greater than 100 µM; in the test with RPMI-8226 leukemia, greater than 100 µM; in the test with MCF7 breast it was 54.9 µM. The TGI is 92.9 µM with SK-MEL-2 melanoma; 52.5 µM in the test with SF-539 CNS; 60.5 µM with T-47D breast; 98.3 µM in the test on LOX IMVI melanoma; greater than 100 µM with K-562 leukemia; greater than 100 µM in the test on UO-31 renal.

In the case of `COC(=O)C(CNC(=O)/C=C/c1ccc(OC)c(OC)c1)NC(=O)/C=C/c1ccc(OC)c(OC)c1` (configuration not stated), the TGI in the test on MDA-MB-231 breast, with SNB-19 CNS, in the test on IGROV1 ovarian, in the test on NCI-H23 lung, in the test on RPMI-8226 leukemia and with MCF7 breast was greater than 100 µM throughout. In addition, the TGI in the test with SK-MEL-2 melanoma, in the test with SF-539 CNS, with T-47D breast, in the test on LOX IMVI melanoma, in the test on K-562 leukemia and with UO-31 renal was greater than 100 µM each time.

Turning to `COc1ccc(C2SCC(=O)N2c2ccc(-n3c(-c4ccccc4)nc4ccccc4c3=O)cc2)cc1` (configuration not stated), the TGI with MDA-MB-231 breast, with SNB-19 CNS, in the test on IGROV1 ovarian, in the test on NCI-H23 lung, in the test with RPMI-8226 leukemia and in the test with MCF7 breast was greater than 100 µM each time. The TGI in the test with SK-MEL-2 melanoma, in the test with SF-539 CNS, in the test on T-47D breast, in the test on LOX IMVI melanoma, in the test on K-562 leukemia and in the test with UO-31 renal was greater than 100 µM throughout.

As to `CCCCSC1=N/C(=C\c2ccccc2O)C(=O)N1`, the TGI with MDA-MB-231 breast, in the test on SNB-19 CNS, with IGROV1 ovarian, in the test with NCI-H23 lung, in the test on RPMI-8226 leukemia and with MCF7 breast was greater than 100 µM each time. In addition, the TGI with SK-MEL-2 melanoma, with SF-539 CNS, in the test with T-47D breast, with LOX IMVI melanoma, with K-562 leukemia and in the test with UO-31 renal was greater than 100 µM throughout.

Regarding `Nc1nc(Cl)cc(NCC2(CCO)CCC2)n1`, the TGI with MDA-MB-231 breast, in the test on SNB-19 CNS, with IGROV1 ovarian, in the test on NCI-H23 lung, with RPMI-8226 leukemia and in the test with MCF7 breast was greater than 100 µM in each case. The TGI in the test on SK-MEL-2 melanoma, in the test with SF-539 CNS, with T-47D breast, in the test with LOX IMVI melanoma, in the test on K-562 leukemia and in the test with UO-31 renal was greater than 100 µM in each case.

For the molecule `Cc1ccc2c(c1)nc1n2C(c2c(F)cccc2F)SC1` (configuration not stated), the TGI in the test with MDA-MB-231 breast, with SNB-19 CNS, in the test with IGROV1 ovarian, with NCI-H23 lung, in the test on RPMI-8226 leukemia and in the test on MCF7 breast was greater than 100 µM each time. Also, the TGI in the test with SK-MEL-2 melanoma was 48.2 µM; in the test on SF-539 CNS it was 59.2 µM; with T-47D breast it was greater than 100 µM; in the test on LOX IMVI melanoma, greater than 100 µM; in the test with K-562 leukemia, greater than 100 µM; in the test with UO-31 renal, greater than 100 µM.

As to `Cn1c(-c2ccc(C=O)o2)ccc1-c1ccc(C=O)o1`, the TGI in the test with MDA-MB-231 breast, with SNB-19 CNS, with IGROV1 ovarian, in the test with NCI-H23 lung, in the test with RPMI-8226 leukemia and in the test on MCF7 breast was greater than 100 µM throughout. Moreover, the TGI with SK-MEL-2 melanoma was greater than 100 µM; in the test on SF-539 CNS, 63.7 µM; in the test on T-47D breast, greater than 100 µM; in the test on LOX IMVI melanoma, greater than 100 µM; with K-562 leukemia, greater than 100 µM; in the test with UO-31 renal, greater than 100 µM.

`CCOC(=O)CNC(=O)C(CCC(=O)N(C)O)NC(=O)CCC(N)C(=O)O` (configuration not stated): the TGI in the test with MDA-MB-231 breast, in the test on SNB-19 CNS, in the test with IGROV1 ovarian, in the test on NCI-H23 lung, with RPMI-8226 leukemia and in the test with MCF7 breast was greater than 100 µM each time. Further, the TGI with SK-MEL-2 melanoma, in the test on SF-539 CNS, in the test with T-47D breast, in the test on LOX IMVI melanoma, with K-562 leukemia and with UO-31 renal was greater than 100 µM in each case.

As to `CC(=O)Nc1nc(C)c(S(=O)(=O)NC(=O)NC2NC(=O)NC2=O)s1` (configuration not stated), the TGI in the test with MDA-MB-231 breast, with SNB-19 CNS, in the test on IGROV1 ovarian, in the test on NCI-H23 lung, with RPMI-8226 leukemia and in the test with MCF7 breast was greater than 100 µM throughout. For the same molecule, the TGI with SK-MEL-2 melanoma, in the test on SF-539 CNS, with T-47D breast, in the test on LOX IMVI melanoma, in the test on K-562 leukemia and in the test with UO-31 renal was greater than 100 µM each time.

Regarding `O=C1CCC(C(=O)N2CSCC2C(=O)O)N1` (configuration not stated) ([pGlu]-[Thz]-OH; configuration not given here), the TGI with MDA-MB-231 breast, with SNB-19 CNS, with IGROV1 ovarian, with NCI-H23 lung, with RPMI-8226 leukemia and in the test with MCF7 breast was greater than 100 µM each time. The TGI with SK-MEL-2 melanoma, in the test on SF-539 CNS, in the test with T-47D breast, in the test with LOX IMVI melanoma, in the test with K-562 leukemia and in the test with UO-31 renal was greater than 100 µM each time.

`NS(=O)(=O)c1ccc(NC(=O)N/N=C/c2ccccc2[N+](=O)[O-])cc1`: the TGI with MDA-MB-231 breast, with SNB-19 CNS, in the test with IGROV1 ovarian, in the test on NCI-H23 lung, in the test on RPMI-8226 leukemia and in the test on MCF7 breast was greater than 100 µM in each case. Besides, the TGI in the test with SK-MEL-2 melanoma, in the test on SF-539 CNS, in the test with T-47D breast, with LOX IMVI melanoma, in the test with K-562 leukemia and in the test with UO-31 renal was greater than 100 µM in each case.
